# Assay results from US20250129135A1, “Multi-Agonist and Use Thereof” (priority 2021, published 2025).
# Starred links: 1 amine or outer side, 2 acyl side, 3 side chain; linkers in the order of their positions; H or OH if unused. Non-standard residues stand in square brackets, D forms with d. Residues, ends and D or L forms follow the SMILES beside them. Groups on a side chain read outwards from the residue. No end group written: not given here. *: point of attachment. C20 diacid = O=C(O)CCCCCCCCCCCCCCCCCCC(=O)*; αMePhe(2-F) = C[C@](N)(Cc1ccccc1F)C(=O)O; γGlu = O=C(O)[C@H](CCC(=O)[*:2])N[*:1]; AEEA = NCCOCCOCC(=O)O; Ac3c = NC1(C(=O)O)CC1; Aib = CC(C)(N)C(=O)O
# B1: Tirzepatide (peptide)
# peptide: Y[Aib]QGTFTSDYSI[Aib]LDKIAQK([AEEA-AEEA-γGlu-C20 diacid])AFVQWLIAGGPSSGAPPPS-NH2
# modifications: N-terminus assumed
# SMILES: CC[C@H](C)[C@H](NC(=O)[C@H](CC(C)C)NC(=O)[C@H](Cc1c[nH]c2ccccc12)NC(=O)[C@H](CCC(N)=O)NC(=O)[C@@H](NC(=O)[C@H](Cc1ccccc1)NC(=O)[C@H](C)NC(=O)[C@H](CCCCNC(=O)COCCOCCNC(=O)COCCOCCNC(=O)CC[C@H](NC(=O)CCCCCCCCCCCCCCCCCCC(=O)O)C(=O)O)NC(=O)[C@H](CCC(N)=O)NC(=O)[C@H](C)NC(=O)[C@@H](NC(=O)[C@H](CCCCN)NC(=O)[C@H](CC(=O)O)NC(=O)[C@H](CC(C)C)NC(=O)C(C)(C)NC(=O)[C@@H](NC(=O)[C@H](CO)NC(=O)[C@H](Cc1ccc(O)cc1)NC(=O)[C@H](CC(=O)O)NC(=O)[C@H](CO)NC(=O)[C@@H](NC(=O)[C@H](Cc1ccccc1)NC(=O)[C@@H](NC(=O)CNC(=O)[C@H](CCC(N)=O)NC(=O)C(C)(C)NC(=O)[C@@H](N)Cc1ccc(O)cc1)[C@@H](C)O)[C@@H](C)O)[C@@H](C)CC)[C@@H](C)CC)C(C)C)C(=O)N[C@@H](C)C(=O)NCC(=O)NCC(=O)N1CCC[C@H]1C(=O)N[C@@H](CO)C(=O)N[C@@H](CO)C(=O)NCC(=O)N[C@@H](C)C(=O)N1CCC[C@H]1C(=O)N1CCC[C@H]1C(=O)N1CCC[C@H]1C(=O)N[C@@H](CO)C(N)=O
# Experiments:
# RIN-m5F cells = format: cell-based, rat
# Procedure, shortened: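 cAMP production measured in RIN-m5F cells resuspended in HBSS; compounds incubated 60 min at room temperature, then detection reagent added for a further 60 min before read-out.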
# 3T3-L1 adipocytes = tested on: 3T3-L1 adipocytes
# Procedure, shortened: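 Mouse 3T3-L1 preadipocytes were differentiated with IBMX, dexamethasone and insulin for 5 days, then insulin plus 10 uM rosiglitazone for 3 days, then 10% FBS medium for 2–3 days. Mature adipocytes received 10-point, 3-fold compound dilutions for 60 min at room temperature. cAMP was read by kit detection reagent after a further 60 min, with concentration-effect curves fitted.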
# [1] = tested on: human primary liver cells; format: cell-based
# Procedure, shortened: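 Human primary hepatocytes, thawed at 37° C and resuspended in HBSS, exposed to compound for 60 min at room temperature. Detection reagent then added for 60 min before cAMP readout.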
# C57 BL/6J DIO mice = assay: In vivo pharmacodynamics in high-fat diet induced obesity (DIO) mice; parameters: species or system mouse; details: Mean±SEM; for Weight change: Table 6-1; for LDL-C / TC (total cholesterol) / TG (plasma triglycerides): Table 7-1; for Liver TG: Table 9-1
# Description: High-fat diet induced obesity (DIO) mice have characteristics such as obesity, elevated blood sugar, insulin resistance, and lipid abnormalities, all of which are very significant metabolic syndromes similar to a human body. The effects of the compounds of the present application on body weight, food intake, blood sugar, and lipids in C57 BL/6J DIO mice were studied.
# Obesity was induced in mice by feeding with a high-fat diet (60 kcal % of calories from fat). […] After grouping, one animal was raised in each cage for one week, during which each of the animals was injected subcutaneously (S.C.) with a solvent (1×PBS, 5 ml/kg) to pre-adapt the experimental operation process.
# After the preparation of animals, vehicle control or compounds were administered to groups of animals by subcutaneous injection, in which the compounds were dissolved in 1×PBS, the dosage was 5 ml/kg, and the administration operation was started at 9:00 am and conducted once every three days (Q3D) for 15 days. Throughout the entire experimental study, animal weight and food intake were measured daily before administration, and compared with initial weight and food intake of the same animal before administration to calculate a percentage change in animal weight (%) and cumulative food intake, so as to evaluate the impact of compounds on changes in body weight and food intake.
# At the end point of the experiment (Day 15), the body weight of the mice was measured, and then fasting blood glucose was measured by taking blood from the tail tip of broken tail without anesthesia. After the blood collection, the animals were anesthetized with CO2 and euthanized. Then, blood was taken from the heart and plasma was separated by centrifugation. The plasma was used to measure total cholesterol (TC), low-density lipoprotein cholesterol (LDL-C), triglycerides (TG), and blood insulin content. The liver was separated for homogenization, and then centrifuged to obtain the supernatant for determining triglyceride content in the liver.
# All results were expressed in Mean±SEM, and the results were analyzed by one-way ANOVA using GraphPad Prism 5 software, followed by Dunnett's post hoc test compared to the Vehicle control group. The difference at the p<0.05 level was considered statistically significant.
# [2] = Rat pharmacokinetics (PK) study; format: in vivo; details: sc, male SD rats, subcutaneous 30 nmol/kg, plasma
# Experimental: 7˜9 weeks old male SD rats (220-250 g, 3 rats/group) were subjected to subcutaneous injection of 30 nmol/kg compound. After administration, blood was collected through the jugular vein at time points 0.25, 2, 4, 8, 12, 16, 24, 48, 96, 120, and 144 hours. The blood was processed to obtain plasma samples and analyzed using LC-MS/MS. The blood concentration time curve was analyzed using Phoenix WinNonlin version 6.3 software (non compartment model), and PK parameters and half-life were calculated.
# Human GIP R = target: T1, Human GIP R (Homo sapiens, UniProt P48546); assay: cAMP (HTRF) activity in CHO cells stably overexpressing GIP receptor; format: cell-based
# T1 construct: expressed in transfected cells; host or cells: CHO
# T1 sequence (P48546 22-466): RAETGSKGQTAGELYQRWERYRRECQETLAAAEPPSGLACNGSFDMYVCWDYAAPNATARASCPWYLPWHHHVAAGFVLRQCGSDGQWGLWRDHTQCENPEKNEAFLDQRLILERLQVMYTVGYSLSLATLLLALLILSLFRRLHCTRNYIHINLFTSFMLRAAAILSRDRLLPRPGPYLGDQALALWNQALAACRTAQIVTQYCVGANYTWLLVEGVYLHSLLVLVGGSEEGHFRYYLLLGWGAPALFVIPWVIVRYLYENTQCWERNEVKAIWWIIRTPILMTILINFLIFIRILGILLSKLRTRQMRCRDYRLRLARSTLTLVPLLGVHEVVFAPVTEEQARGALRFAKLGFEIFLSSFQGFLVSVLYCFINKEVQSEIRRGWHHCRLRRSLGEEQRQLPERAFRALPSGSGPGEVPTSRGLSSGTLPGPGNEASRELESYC
# Procedure, shortened: (§1)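 Cells in HBSS are exposed to compound for 60 min at room temperature, followed by 60 min with detection reagent. EC50 (nM) is taken from concentration-response curves.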
# Human GCG R = target: T2, Human GCG R (Homo sapiens, UniProt P47871); assay: cAMP (HTRF) activity in HEK-293 cells stably overexpressing human GCG receptor; format: cell-based; details: EC50 of human GCG / EC50 of compound
# T2 construct: expressed in transfected cells; host or cells: HEK-293
# Procedure, shortened: as §1
# Human GLP-1R = Human GLP-1R (Homo sapiens, UniProt P43220); assay: cAMP (HTRF) activity in HEK-293 cells stably overexpressing human GLP-1 receptor; format: cell-based; parameters: expressed in transfected cells; host or cells: HEK-293; details: EC50 of human GLP-1 (7-37) / EC50 of compound
# Procedure, shortened: as §1
# [3] = target: T3, human GIP receptor (human) (UniProt P48546); assay: cell-based or functional assay
# T3 sequence (looked up): T1 sequence (P48546 22-466)
# T2 sequence (P47871 26-477): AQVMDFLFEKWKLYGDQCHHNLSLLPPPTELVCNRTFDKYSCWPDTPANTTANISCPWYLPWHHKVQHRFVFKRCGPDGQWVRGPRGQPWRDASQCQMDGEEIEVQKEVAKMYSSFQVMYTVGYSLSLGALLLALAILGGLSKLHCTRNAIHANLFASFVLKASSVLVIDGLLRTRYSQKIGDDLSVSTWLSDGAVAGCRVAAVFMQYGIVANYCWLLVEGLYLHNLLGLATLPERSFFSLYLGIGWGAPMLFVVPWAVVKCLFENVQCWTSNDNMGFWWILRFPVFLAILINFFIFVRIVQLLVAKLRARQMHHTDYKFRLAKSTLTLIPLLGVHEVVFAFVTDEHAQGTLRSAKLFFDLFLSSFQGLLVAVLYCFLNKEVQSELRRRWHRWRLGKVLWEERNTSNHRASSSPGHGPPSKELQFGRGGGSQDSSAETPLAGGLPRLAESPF
# Chain of Human GLP-1R (P43220 24-463): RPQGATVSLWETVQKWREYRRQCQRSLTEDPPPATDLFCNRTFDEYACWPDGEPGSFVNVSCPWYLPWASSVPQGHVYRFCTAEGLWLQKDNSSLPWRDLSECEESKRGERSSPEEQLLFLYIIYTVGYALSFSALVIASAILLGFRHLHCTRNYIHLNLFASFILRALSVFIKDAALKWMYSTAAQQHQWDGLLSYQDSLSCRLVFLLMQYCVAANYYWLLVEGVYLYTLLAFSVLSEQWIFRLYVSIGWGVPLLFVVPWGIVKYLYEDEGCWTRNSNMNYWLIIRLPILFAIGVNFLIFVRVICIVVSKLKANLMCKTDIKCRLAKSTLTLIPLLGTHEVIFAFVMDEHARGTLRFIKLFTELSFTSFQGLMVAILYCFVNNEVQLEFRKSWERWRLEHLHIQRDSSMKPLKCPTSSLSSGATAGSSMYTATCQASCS
molecule,measurement,setting,value
CC[C@H](C)[C@H](NC(=O)[C@H](Cc1ccccc1)NC(=O)[C@H](C)NC(=O)C(C)(C)NC(=O)[C@H](CCC(N)=O)NC(=O)[C@H](C)NC(=O)[C@H](CCCCNC(=O)COCCOCCNC(=O)COCCOCCNC(=O)CC[C@H](NC(=O)CCCCCCCCCCCCCCCCCCC(=O)O)C(=O)O)NC(=O)[C@H](CCCCN)NC(=O)[C@H](CC(=O)O)NC(=O)[C@H](CC(C)C)NC(=O)[C@](C)(CC(C)C)NC(=O)[C@@H](NC(=O)[C@H](CO)NC(=O)[C@H](Cc1ccc(O)cc1)NC(=O)[C@H](CC(=O)O)NC(=O)[C@H](CO)NC(=O)[C@@H](NC(=O)[C@](C)(Cc1ccccc1)NC(=O)[C@@H](NC(=O)CNC(=O)[C@H](CCC(N)=O)NC(=O)C(C)(C)NC(=O)[C@@H](N)Cc1ccc(O)cc1)[C@@H](C)O)[C@@H](C)O)[C@@H](C)CC)C(=O)N[C@@H](CCC(=O)O)C(=O)N[C@@H](Cc1ccc(O)cc1)C(=O)N[C@@H](CC(C)C)C(=O)N[C@@H](CC(C)C)C(=O)N[C@@H](CCC(=O)O)C(=O)N[C@@H](CO)C(=O)N[C@@H](Cc1c[nH]cn1)C(=O)N1CCC[C@H]1C(=O)N[C@@H](CO)C(=O)N[C@@H](CO)C(=O)NCC(=O)N[C@@H](C)C(=O)N1CCC[C@H]1C(=O)N1CCC[C@H]1C(=O)NC1(C(=O)N[C@@H](CO)C(N)=O)CC1 [Compound 3],EC50,RIN-m5F cells,0.4 nM
same,EC50,3T3-L1 adipocytes,1.87 nM
same,EC50,[1],1.59 nM
same,Weight change,C57 BL/6J DIO mice; 3 nmol/kg s.c. Q3D for 15 days,−21.2 ± 0.75%
same,Weight change,C57 BL/6J DIO mice; 10 nmol/kg s.c. Q3D for 15 days,−32.4 ± 2.94%
same,Weight change,C57 BL/6J DIO mice; 30 nmol/kg s.c. Q3D for 15 days,−51.6 ± 1.21%
same,LDL-C,"C57 BL/6J DIO mice; 3 nmol/kg, Day 15",0.52 ± 0.033 mM
same,TC (total cholesterol),"C57 BL/6J DIO mice; 3 nmol/kg, Day 15",3.42 ± 0.214 mM
same,TG (plasma triglycerides),"C57 BL/6J DIO mice; 3 nmol/kg, Day 15",0.87 ± 0.066 mM
same,LDL-C,"C57 BL/6J DIO mice; 30 nmol/kg, Day 15",0.37 ± 0.035 mM
same,TC (total cholesterol),"C57 BL/6J DIO mice; 30 nmol/kg, Day 15",2.15 ± 0.079 mM
same,TG (plasma triglycerides),"C57 BL/6J DIO mice; 30 nmol/kg, Day 15",0.55 ± 0.022 mM
same,Blood sugar (fasting blood glucose),"C57 BL/6J DIO mice; Table 8-1, 3 nmol/kg, Day 15",107.5 ± 5.17 mg/dL
same,Insulin (blood),"C57 BL/6J DIO mice; Table 8-1, 3 nmol/kg, Day 15",25.4 ± 16.90 mIU/L
same,Liver TG,"C57 BL/6J DIO mice; 3 nmol/kg, Day 15",32.2 ± 2.99 mg
same,AUC(0-t),[2],6.69 µM·h
same,Cmax,[2],149 nM
same,Tmax,[2],21.3 h
same,half-life,[2],19.1 h
CC[C@H](C)[C@H](NC(=O)[C@H](Cc1ccccc1)NC(=O)[C@H](C)NC(=O)C(C)(C)NC(=O)[C@H](CCC(N)=O)NC(=O)[C@H](C)NC(=O)[C@H](CCCCNC(=O)COCCOCCNC(=O)COCCOCCNC(=O)CC[C@H](NC(=O)CCCCCCCCCCCCCCCCCCC(=O)O)C(=O)O)NC(=O)[C@H](CCCCN)NC(=O)[C@H](CC(=O)O)NC(=O)[C@H](CC(C)C)NC(=O)[C@H](Cc1ccccc1)NC(=O)[C@@H](NC(=O)[C@H](CO)NC(=O)[C@H](Cc1ccc(O)cc1)NC(=O)[C@H](CC(=O)O)NC(=O)[C@H](CO)NC(=O)[C@@H](NC(=O)[C@](C)(Cc1ccccc1F)NC(=O)[C@@H](NC(=O)CNC(=O)[C@H](CCC(N)=O)NC(=O)C(C)(C)NC(=O)[C@@H](N)Cc1ccc(O)cc1)[C@@H](C)O)[C@@H](C)O)[C@@H](C)CC)C(=O)N[C@@H](CCC(=O)O)C(=O)N[C@@H](Cc1ccccc1)C(=O)N[C@@H](CC(C)C)C(=O)N[C@@H](CC(C)C)C(=O)N[C@@H](CCC(=O)O)C(=O)N[C@@H](CO)C(=O)N[C@@H](Cc1c[nH]cn1)C(=O)N1CCC[C@H]1C(=O)N[C@@H](CO)C(=O)N[C@@H](CO)C(=O)NCC(=O)N[C@@H](C)C(=O)N1CCC[C@H]1C(=O)N1CCC[C@H]1C(=O)NC1(C(=O)N[C@@H](CO)C(N)=O)CC1 [Compound 10] (H-Y[Aib]QGT[αMePhe(2-F)]TSDYSIFLDKK([AEEA-AEEA-γGlu-C20 diacid])AQ[Aib]AFIEFLLESHPSSGAPP[Ac3c]S-NH2),Human GIP R Rel. A (Relative Activity),Human GIP R; EC50 of human GIP / EC50 of compound,861.90%
same,EC50,"Human GIP R; stable transfected cell cAMP activity, at least 3 independent tests",0.021 nM
same,Human GCG R Rel. A (Relative Activity),Human GCG R,75.00%
same,EC50,RIN-m5F cells,0.274 nM
same,Rel. A (Relative Activity) on RIN-m5F,RIN-m5F cells; relative to GLP-1(7-37),376.64%
same,EC50,3T3-L1 adipocytes,6.16 nM
same,Rel. A (Relative Activity) on 3T3-L1 adipocyte,3T3-L1 adipocytes; relative to GIP,61.76%
same,EC50,[1],5.19 nM
same,Rel. A (Relative Activity) on human primary liver cells,[1]; relative to GCG,75.00%
same,Liver TG,"C57 BL/6J DIO mice; 3 nmol/kg, Day 15",81.6 ± 8.50 mg
same,Human GLP-1R Rel. A (Relative Activity),Human GLP-1R,93.62%
B1,"cAMP EC50, CHO cells stably overexpressing human GIP R",[3],0.21 nM
same,"cAMP Rel. A (%) against human GIP, human GIP R cells",[3],86.2%
